These results are taken from patent US6593365B1, “Diflunisal esters and related compounds” (The University of Queensland, priority 1997, dated 2003).

Marks after values point to notes of the source that are not given here.

In data set [1] the test system is in-situ perfused rat liver. Nature of the data set: In-situ rat liver perfusions, hepatic availability (Example 2). Type of data set: in vitro ADME. Particulars: 30 mL/min, bolus. On the procedure: The hepatic availability (Fhepatic) for the O-acyl esters of the salicylic acid and diflunisal was determined using a once through in-situ perfused rat liver preparation (Mellick et al, Unpublished Results).
Protein-free Krebs-Henseleit buffer was perfused at 30 mL/min for aspiring analogues and 2% BSA in Krebs-Henseleit buffer for diflunisal esters (since the solubilities of these latter compounds in protein-free media were very low (Hung et al, supra), 2% BSA were used to increase their solubilities). Briefly, 50 μL aliquots of a saturated solution of the particular O-acyl salicylic acid or diflunisal in Krebs-Henseleit buffer (or with 2% BSA) was injected into the liver with perfusate outflow samples collected via a fraction collector over three minutes. Aliquots (100 μL) from the outflow samples were assayed by HPLC to determine the residual concentration of presented ester and the quantity of phenolic metabolite (salicylic acid or diflunisal) issuing from the perfused liver. The HPLC assay was a modification of the method used by Mellick & Roberts 1996 (Mellick et al, 1996, unpublished results).
The hepatic availability (F) was determined from the outflow concentration versus time profiles for the esters using equation 1, with the assistance of the Moments Calculator 2.2 program for Macintosh computer developed by Robert Purves.
where Q is the perfusate flow rate and D is the dose of aspirin analogues or diflunisal esters administered. The area under the concentration-time curve (AUC) was estimated by the trapezoidal rule integration with appropriate modification for tail (Mellick et al, supra).

Data set [2] relates to superoxide generated from xanthine oxidase plus xanthine reaction. Nature of the data set: Xanthine oxidase plus xanthine-induced chemiluminescence. Particulars: X: CL induced by xanthine oxidase plus xanthine. Type of data set: biochemical. Details: dose or concentration left out as unconfirmed. On the procedure:
To clarify the role of aspirin analogues and diflunisal esters in free radicals scavenging, the Fenton's reagent was replaced by an artificial superoxide generating system in the CL inhibition studies. This cell-free system consisted of 100 μg/mL of xanthine oxidase (Sigma) plus 0.5 μM xanthine (Sigma) (Rosen and Klebanoff, 1976, J Clin Invest 58 50-60; Cheson et al., 1976, J Clin Invest 58 789-796).
(§1) CL measurements were always done in triplicate and Student's t-test used to assess the statistical significance of the difference between measurements.

In data set [3] the test system is human platelet rich plasma. Nature of the data set: Platelet aggregation induced by arachidonic acid. Type of data set: cell-based. Particulars: compound 600 µM, 37° C., arachidonic acid 200 µM. On the procedure: Platelet aggregation studies were carried out using a single channel Lumiaggregometer (Chrono-Log Company, Haverton, Pa.) at 37° C. using human platelet-rich and platelet-poor plasma. Platelet-rich plasma (PRP) with a platelet concentration of […] (measured with a Coulter counter) was prepared by centrifuging 3.8% citrated […] (1:9) at 1,500 rpm using a (Beckman) benchtop centrifuge at room temperature for 15 minutes. Platelet-poor plasma (PPP) was prepared by further centrifuging residual blood from platelet-rich plasma at 3,000 rpm for 30 minutes. Platelet-poor plasma was also confirmed b y Coulter counting for platelet content.
Platelet aggregation studies were preceded by pipetting 0.4 mL platelet-rich plasma into a stirred aggregometer tube and calibrate to 90% of recorder. Platelet-poor plasma was set to calibrate at 10% of recorder. Platelet aggregation was initiated by the addition of a arachidonic acid (Sigma) or ADP (Sigma).
10 mM solutions of each compound (TABLE 6) were prepared in 1 mL of normal saline solution (containing 4% BSA) before use. An aliquot (400 μL) of platelet-rich plasma was pipetted into a stirred aggregometer tube at 37° C. and 30 μL of test sample added simultaneously. This mixture was preincubated for varying period (3 to 45 minutes), then arachidonic acid (AA) was added (final conc.=200 μM) to initiate platelet aggregation. If no aggregation occurred, 20 μM ADP was added to confirm the vitality of the platelets (if the platelets are vital, ADP will induce this AA-test sample-plasma mixture to aggregate). This procedure is necessary to investigate whether the non-aggregation phenomenon is due to drug inhibition or simply due to inviable platelets (unable to respond to AA). The degree of aggregation was measure by calculating the area under the turbidimetric response curve (AUC).

Data set [4] relates to OH. generated from Fenton's reaction. Nature of the data set: Luminol-dependent chemiluminescence induced by Fenton's reagent. The format is biochemical. The arrangement: unit of the concentration uncertain. Particulars: F: CL induced by Fenton's reagent, n=3. On the procedure: CL was measured with a luminometer (Model 1250; LKB Wallac, Finland) and recorded in millivolts (Cheung et al., 1984, supra).
Fenton's reagent (FeSO4 and H2O2) was used as a standard reaction mixture for the generation of OH. (Lai and Piette, 1979, Tetrahedron Lett. 775-778):
Fe^+++H2O2→Fe^++++OH.+OH (1)
The initial reaction mixture consisted of 20 μL of 3.8 mM FeSO4.7H2O, 20 μL of 5 mg/mL luminol (Sigma), and 2 mL of 1 mM phosphate buffer in a 3 mL polystyrene cuvette. Twenty microlitres of 320 mM H2O2 was added to initiate the Fenton's reaction.
A known concentration of the ethanolic (≲1%) aspirin analogue or diflunisal ester's stock solution was added to the 1 mM phosphate buffer to prepare solutions with a final concentration of 50 μM, 250 μM or 500 μM. Twenty microlitres of these test samples was added onto the cuvette which contained the initial reaction mixture. H2O2 was added to induce CL reaction. The luminol-dependent CL response was recorded in mV by a potentiometric recorder.
as §1

Where [5] appears, read: protein-free Krebs-Henseleit buffer as perfusate.
The mark [6] stands for this setting: 0.5 (unit uncertain) compound, U = undetectable.

For the compound `CCCC(=O)Oc1ccccc1C(=O)O` [Compound C4SA, n-butanoylsalicylic acid], in data set [1] (setting [5]), the “Hepatic availability (F)” value was determined as 0.40. Further, the results for the “CL inhibition (%)” value in data set [2], in data set [4] (2.5 (unit uncertain) compound) and in data set [4] (5 (unit uncertain) compound) were 0.3 ± 0.1%, 41.3 ± 7.5% and 84.2 ± 1.4%, respectively. Moreover, the “Platelet Aggregation (% of control)” value in data set [3] (preincubation 3 minutes) is 29.5 ± 1.5^d % of control; in data set [3] (preincubation 5 minutes), 0 % of control; in data set [3] (preincubation 8 minutes) it was 0 % of control; in data set [3] (preincubation 10 minutes) it was 0 % of control; in data set [3] (preincubation 12 minutes), 0 % of control; in data set [3] (preincubation 15 minutes) it was 0 % of control. For the same compound, the “Platelet Aggregation (% of control)” value in data set [3] (preincubation 20 minutes), in data set [3] (preincubation 25 minutes) and in data set [3] (preincubation 45 minutes) was 0 % of control throughout.

Regarding `O=C(O)c1cc(-c2ccc(F)cc2F)ccc1O` [DF, 2′,4′-difluoro-4-hydroxy-3-biphenylcarboxylic acid, reference compound], the “CL inhibition (%)” value in data set [2] was found to be 0.4 ± 0.1%; in data set [4] (setting [6]), 19.2 ± 6.9%; in data set [4] (2.5 (unit uncertain) compound), 50.6 ± 2.8%; in data set [4] (5 (unit uncertain) compound) it was 92.1 ± 0.6%.

In the case of `CCCCC(=O)Oc1ccccc1C(=O)O` [Compound C5SA, n-pentanoylsalicylic acid], in data set [1] (setting [5]), the “Hepatic availability (F)” value is 0.26. For the same compound, the “CL inhibition (%)” value in data set [2] was 0.3 ± 0.0%; in data set [4] (setting [6]), 0.4 ± 0.1^e %; in data set [4] (2.5 (unit uncertain) compound) it was 45.9 ± 5.0%; in data set [4] (5 (unit uncertain) compound), 95.6 ± 0.4%. Also, the “Platelet Aggregation (% of control)” value in data set [3] (preincubation 3 minutes) is recorded as 63.5 ± 1.5 % of control; in data set [3] (preincubation 5 minutes), 41.3 ± 1.1 % of control; in data set [3] (preincubation 8 minutes) it was 0 % of control; in data set [3] (preincubation 10 minutes), 0 % of control; in data set [3] (preincubation 12 minutes) it was 0 % of control; in data set [3] (preincubation 15 minutes) it was 0 % of control. Further, the “Platelet Aggregation (% of control)” value in data set [3] (preincubation 20 minutes), in data set [3] (preincubation 25 minutes) and in data set [3] (preincubation 45 minutes) was 0 % of control each time.

Consider `CCCC(=O)Oc1ccc(-c2ccc(F)cc2F)cc1C(=O)O` [Compound C4D, n-butanoyldiflunisal], for which, in data set [1] (2% BSA in Krebs-Henseleit buffer as perfusate), the “Hepatic availability (F)” value is listed as 0.34. Also, the “CL inhibition (%)” value amounted to 0.6 ± 0.1% in data set [2], 16.9 ± 4.9% in data set [4] (setting [6]), 65.1 ± 2.1% in data set [4] (2.5 (unit uncertain) compound) and 93.7 ± 0.5% in data set [4] (5 (unit uncertain) compound). For the same compound, the “Platelet Aggregation (% of control)” value in data set [3] (preincubation 3 minutes) is on record as 96.1 ± 0.3 % of control; in data set [3] (preincubation 5 minutes), 90.3 ± 2.1 % of control; in data set [3] (preincubation 8 minutes), 73.9 ± 0.7 % of control; in data set [3] (preincubation 10 minutes), 57.3 ± 0.1 % of control; in data set [3] (preincubation 12 minutes) it was 31.8 ± 0.4 % of control; in data set [3] (preincubation 15 minutes) it was 0 % of control. The “Platelet Aggregation (% of control)” value in data set [3] (preincubation 20 minutes), in data set [3] (preincubation 25 minutes) and in data set [3] (preincubation 45 minutes) was 0 % of control each time.
